Results taken from US11981752B2, “Tumor associated monocyte/macrophage binding peptide and methods of use thereof” (Sanford Burnham Prebys Medical Discovery Institute, priority 2017, dated 2024).
“Also recorded” adds a separate entry of the source. Where two headings read alike, the source gives them in different places. Bridge positions count the residues as written; N and C are the ends. Ends that are not written are not given here.

Columns and labels:
mTOR = mTOR (Homo sapiens, UniProt P42345); details: cited from earlier work
PI3Kβ = PI3Kβ (Homo sapiens, UniProt P42338); details: cited from earlier work
PI3Kδ = PI3Kδ (Homo sapiens, UniProt O00329); details: cited from earlier work
PI3Kγ = PI3Kγ (Homo sapiens, UniProt P48736); details: cited from earlier work
J774A.1 cells [1] = experiment: Phage display screening (CX7C T7 library) on J774A.1 cells; details: high throughput sequencing of phage clones bound to J774A.1 cells after three rounds of enrichment; terminal cysteines omitted
[2] = system: macrophages in atherosclerosis plaques; experiment: In vivo homing to atherosclerosis plaques; parameters: species or system mice; details: 200 μg FAM-labeled peptide intravenously, 1 hour of circulation
Protocol: (§1) To produce 4T1 tumors, 1×10^6 4 T1 cells (ATCC) suspended in 100 μl of PBS were injected into the mammary fat pad of wild type Balb/c female mice. C57BL/6 mice bearing atherosclerosis plaques were generated as previously described (She et al., Journal of Controlled Release 238:212-20 (2016)). Animal experimentation was performed according to the procedures approved by the Animal Research Committee at the Sanford-Burnham Medical Research Institute.
(§2) Orthotopic 4T1 tumors were used when they reached 0.5-1 cm in size. For tumor or plaque homing, 200 μg FAM-labeled peptide dissolved in 100 μl PBS was injected intravenously into mice. After 1 hour of circulation, the mice were euthanized by cardiac perfusion with PBS under anesthesia, and tumors and other organs (or plaques on the aorta) were dissected and analyzed for peptide homing.
Therefore, whether CRV also binds to macrophages in this model was investigated. 200 μg FAM-labeled peptide or control peptide ARA, each dissolved in 100 μl PBS, was injected intravenously into mice. After 1 hour of circulation, the mice were euthanized by cardiac perfusion with PBS under anesthesia, and tumors and other organs (or plaques on the aorta) were dissected and imaged with illuminator for FAM signal.

4T1 breast tumors = experiment: In vivo peptide homing in mice bearing orthotopic 4T1 breast tumors; details: 1 hour
Protocol: as §1, §2
In vivo tissue distribution of CRV peptide in tumor mice was investigated. FAM-CRV was injected intravenously into mice bearing 4T1 breast tumors. After 1 hour, perfusion through the heart was performed to eliminate any circulating peptide. Heart, lung, liver, kidney, spleen, and tumor were excised and the FAM-CRV signal was imaged with an illuminator.
CRV homing in tumor mice was investigated. Mice with orthotopic 4T1 breast tumors (n=2) were intravenously injected with 100 μg of CRV peptide labeled with a green fluorophor (FAM). The peptide was allowed to circulate for 1 hour, and the mice were perfused through the left ventricle of the heart to eliminate any peptide remaining in the blood. Major organs were excised and examined under visible and fluorescent light.

[3] = system: cells isolated from 4T1 tumors; experiment: Ex vivo binding of FAM-CRV to cells isolated from 4T1 tumors; assay type: cell-based, mice; details: FAM-CRV 10 μM, 1-hour at 4° C., flow cytometry
Protocol: To determine the identity of the cells that FAM-CRV localized in within the tumors, ex vivo binding of FAM-CRV to cells isolated from tumors was studied. Tumors were excised from mice bearing 4T1 breast cancer and dissociated into single cell populations using MACS dissociation kit according to the manufacturer's instructions. FAM-CRV was added to a final concentration of 10 μM into a solution of DMEM+1% BSA containing 2 million tumor cells. After 1-hour incubation at 4° C., cells were stained with various immune cell markers. The markers tested include: CD11b (pan-monocyte/macrophage marker), Ly6-G (granulocytic monocyte), CCR2 (infiltrating monocytes), F4/80, CD4 (helper T cells), CD8 (cytotoxic T cells). Cells were stained for the indicated markers and subjected to flow cytometry analysis. The analysis was performed using antibodies to the indicated macrophage markers on CRV-positive cells.

[4] = system: macrophages in sites of infection; experiment: Targeting of macrophages in sites of infection; assay type: in vivo; details: microbial, viral, or bacterial infection; no method given
J774A.1 cells [5] = experiment: In vitro peptide binding, flow cytometry, J774A.1; assay type: cell-based, mouse
Protocol: (§3) J774A.1 and RAW264.7 cells were obtained from ATCC. Cells were maintained in Dulbecco's Modified Eagle Medium supplemented with 10% fetal bovine serum, 1% Glutamine-Pen-Strep and […].
(§4) Cells were incubated on a rotator with peptides added at a final concentration of 10 μM in DMEM plus 1% BSA. For inhibition studies, biotin-CRV was added to a final concentration of 500 μM together with FAM-CRV (10 μM final). After 1 h at 4° C., cells were washed 3 times with PBS followed by flow cytometry analysis.
(§5) The peptide corresponding to the sequence of the top clone: […] (referred to as CRV herein; SEQ ID NO:1) was then synthesized. A green carboxy-fluorescein label (FAM) was added to the N-terminus of CRV to aid detection. CRV binding to two macrophage cell lines, J774A.1 and Raw264.7 was tested. Control peptides used were ARA ([…]; SEQ ID NO:8) and […] (SEQ ID NO:9).

Raw264.7 cells = experiment: In vitro peptide binding, flow cytometry, Raw264.7; assay type: cell-based; details: FAM-labeled peptide 10 μM, 1 h at 4° C., controls ARA, GGSGGSKG
Protocol: as §3, §4, §5

DNA-PK = DNA-PK (Homo sapiens, UniProt P78527); details: cited from earlier work
class I PI3K isoforms = details: cited from earlier work
[6] = system: other kinases (named per endpoint); details: cited from earlier work
ATR = ATR (Homo sapiens, UniProt Q13535); details: cited from earlier work
tumor = details: systemic treatment of mice; cited from earlier work
atherosclerotic plaque = details: systemic treatment of mice; cited from earlier work
[7] = system: macrophages in atherosclerosis plaques; details: ApoE null mice fed high fat diet (She et al. 2016); cited from earlier work

Sequence of PI3Kγ (P48736 whole entry, species assumed): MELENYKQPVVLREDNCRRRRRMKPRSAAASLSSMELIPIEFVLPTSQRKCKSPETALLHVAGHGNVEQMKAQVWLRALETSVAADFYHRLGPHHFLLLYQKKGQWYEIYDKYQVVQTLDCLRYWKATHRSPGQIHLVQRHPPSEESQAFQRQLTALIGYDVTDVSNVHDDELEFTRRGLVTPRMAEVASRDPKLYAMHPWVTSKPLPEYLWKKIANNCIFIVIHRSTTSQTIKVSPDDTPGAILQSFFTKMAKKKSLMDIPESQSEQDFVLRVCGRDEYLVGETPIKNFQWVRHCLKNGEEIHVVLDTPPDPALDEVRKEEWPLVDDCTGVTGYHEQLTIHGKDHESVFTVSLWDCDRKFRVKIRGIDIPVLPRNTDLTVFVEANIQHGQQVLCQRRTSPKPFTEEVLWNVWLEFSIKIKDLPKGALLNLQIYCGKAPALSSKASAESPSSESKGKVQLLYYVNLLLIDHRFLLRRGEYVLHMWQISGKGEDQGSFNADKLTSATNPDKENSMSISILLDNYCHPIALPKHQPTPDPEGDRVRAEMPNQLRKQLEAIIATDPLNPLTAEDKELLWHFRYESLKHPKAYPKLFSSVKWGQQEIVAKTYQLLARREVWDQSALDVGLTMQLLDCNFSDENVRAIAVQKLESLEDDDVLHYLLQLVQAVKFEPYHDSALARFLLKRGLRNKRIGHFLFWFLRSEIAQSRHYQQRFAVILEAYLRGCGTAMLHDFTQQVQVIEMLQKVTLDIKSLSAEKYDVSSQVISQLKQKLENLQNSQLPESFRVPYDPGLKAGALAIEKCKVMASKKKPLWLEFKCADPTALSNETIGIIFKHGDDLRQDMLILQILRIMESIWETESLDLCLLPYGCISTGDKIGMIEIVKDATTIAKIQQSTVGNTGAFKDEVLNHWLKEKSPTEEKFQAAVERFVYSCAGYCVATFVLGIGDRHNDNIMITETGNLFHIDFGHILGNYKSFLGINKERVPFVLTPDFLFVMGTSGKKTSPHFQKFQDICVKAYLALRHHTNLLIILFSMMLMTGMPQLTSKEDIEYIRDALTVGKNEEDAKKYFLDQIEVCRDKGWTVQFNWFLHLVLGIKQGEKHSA
Sequence of PI3Kδ (O00329 whole entry, species assumed): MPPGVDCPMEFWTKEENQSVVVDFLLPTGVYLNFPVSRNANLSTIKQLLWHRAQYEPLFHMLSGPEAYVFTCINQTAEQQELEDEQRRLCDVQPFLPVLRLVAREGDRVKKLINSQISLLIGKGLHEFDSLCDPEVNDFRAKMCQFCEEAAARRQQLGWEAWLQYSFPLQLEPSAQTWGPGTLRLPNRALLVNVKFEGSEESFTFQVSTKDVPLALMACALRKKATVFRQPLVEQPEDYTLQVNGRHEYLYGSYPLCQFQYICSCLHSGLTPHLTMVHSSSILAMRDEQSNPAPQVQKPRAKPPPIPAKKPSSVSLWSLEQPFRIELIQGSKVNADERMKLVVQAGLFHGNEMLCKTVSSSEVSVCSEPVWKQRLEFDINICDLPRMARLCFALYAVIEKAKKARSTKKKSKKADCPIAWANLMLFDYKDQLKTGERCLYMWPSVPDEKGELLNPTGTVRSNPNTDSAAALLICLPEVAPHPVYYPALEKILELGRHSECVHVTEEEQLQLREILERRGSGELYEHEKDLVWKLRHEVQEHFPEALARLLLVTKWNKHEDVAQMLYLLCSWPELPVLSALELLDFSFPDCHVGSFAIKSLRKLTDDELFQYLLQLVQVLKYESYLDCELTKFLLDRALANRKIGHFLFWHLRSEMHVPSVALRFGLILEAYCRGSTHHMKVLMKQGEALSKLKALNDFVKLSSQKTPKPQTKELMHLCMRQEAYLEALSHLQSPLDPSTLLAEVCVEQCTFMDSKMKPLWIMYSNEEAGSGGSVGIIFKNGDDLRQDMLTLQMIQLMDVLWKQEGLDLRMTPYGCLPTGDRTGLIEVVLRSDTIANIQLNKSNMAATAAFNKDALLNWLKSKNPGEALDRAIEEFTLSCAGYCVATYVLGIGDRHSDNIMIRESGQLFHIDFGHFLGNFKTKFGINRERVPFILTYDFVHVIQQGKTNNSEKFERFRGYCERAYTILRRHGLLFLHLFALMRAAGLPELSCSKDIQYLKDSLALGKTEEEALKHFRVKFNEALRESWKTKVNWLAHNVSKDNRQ
Sequence of PI3Kδ (P27986 whole entry partner, species assumed): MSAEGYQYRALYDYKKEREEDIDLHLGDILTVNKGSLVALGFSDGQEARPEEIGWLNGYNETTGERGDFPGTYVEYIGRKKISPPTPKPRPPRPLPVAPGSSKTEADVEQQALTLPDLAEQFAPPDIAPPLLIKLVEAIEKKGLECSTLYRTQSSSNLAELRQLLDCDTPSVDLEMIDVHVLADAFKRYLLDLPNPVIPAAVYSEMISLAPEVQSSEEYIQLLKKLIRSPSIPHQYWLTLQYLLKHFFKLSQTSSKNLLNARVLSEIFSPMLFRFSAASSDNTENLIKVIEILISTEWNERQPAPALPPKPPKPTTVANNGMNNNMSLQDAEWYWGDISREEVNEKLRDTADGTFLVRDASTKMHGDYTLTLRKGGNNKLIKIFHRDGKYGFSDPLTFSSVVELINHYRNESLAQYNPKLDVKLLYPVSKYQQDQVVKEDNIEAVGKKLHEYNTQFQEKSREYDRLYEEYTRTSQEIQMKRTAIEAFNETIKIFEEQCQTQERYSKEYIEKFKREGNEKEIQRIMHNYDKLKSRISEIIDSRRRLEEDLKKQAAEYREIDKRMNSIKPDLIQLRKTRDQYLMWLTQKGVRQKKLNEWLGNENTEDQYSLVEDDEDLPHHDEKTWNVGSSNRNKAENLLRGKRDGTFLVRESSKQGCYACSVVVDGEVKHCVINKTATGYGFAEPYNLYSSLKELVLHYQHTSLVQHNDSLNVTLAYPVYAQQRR
Sequence of PI3Kβ (P42338 whole entry, species assumed): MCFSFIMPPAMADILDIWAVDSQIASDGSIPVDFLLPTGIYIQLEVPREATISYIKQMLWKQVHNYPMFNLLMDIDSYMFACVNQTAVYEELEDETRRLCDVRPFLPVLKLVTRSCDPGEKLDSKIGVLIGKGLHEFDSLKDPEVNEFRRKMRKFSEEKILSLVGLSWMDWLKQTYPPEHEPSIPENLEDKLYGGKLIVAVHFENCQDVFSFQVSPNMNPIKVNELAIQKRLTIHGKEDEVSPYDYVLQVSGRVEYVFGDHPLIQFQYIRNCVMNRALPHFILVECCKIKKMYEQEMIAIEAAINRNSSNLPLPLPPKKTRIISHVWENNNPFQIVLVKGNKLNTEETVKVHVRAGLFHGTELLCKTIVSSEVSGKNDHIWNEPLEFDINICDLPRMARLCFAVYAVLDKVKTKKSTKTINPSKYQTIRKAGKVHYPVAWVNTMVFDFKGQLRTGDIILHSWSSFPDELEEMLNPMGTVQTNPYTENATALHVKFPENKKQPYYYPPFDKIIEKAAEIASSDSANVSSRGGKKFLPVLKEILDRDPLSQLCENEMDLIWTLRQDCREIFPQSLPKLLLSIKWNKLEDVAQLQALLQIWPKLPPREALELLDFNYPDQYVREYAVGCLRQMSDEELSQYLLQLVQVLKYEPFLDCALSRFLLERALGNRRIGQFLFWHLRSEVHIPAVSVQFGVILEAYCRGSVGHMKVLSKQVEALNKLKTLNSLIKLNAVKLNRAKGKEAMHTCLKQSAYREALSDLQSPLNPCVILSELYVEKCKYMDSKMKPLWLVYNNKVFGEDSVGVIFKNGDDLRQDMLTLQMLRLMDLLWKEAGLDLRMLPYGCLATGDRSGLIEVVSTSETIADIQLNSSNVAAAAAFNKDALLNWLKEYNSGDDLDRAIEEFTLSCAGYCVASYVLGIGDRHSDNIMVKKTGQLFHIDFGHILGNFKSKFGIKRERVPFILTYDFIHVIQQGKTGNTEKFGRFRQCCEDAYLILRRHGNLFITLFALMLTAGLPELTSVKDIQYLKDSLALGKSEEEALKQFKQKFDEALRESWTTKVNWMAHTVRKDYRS
Sequence of PI3Kβ (P27986 whole entry partner, species assumed): as the sequence (P27986 whole entry partner, species assumed) above

CCn1nnc2c(N3CCOCC3)nc(-c3ccc(NC(=O)Nc4ccc(C(=O)N5CCN(C)CC5)cc4)cc3)nc21 [PKI-402]
IC50 (mTOR): 3 nM | IC50 (PI3Kβ): 7 nM

Cc1ccccc1-n1c(Cn2ncc3c(N)ncnc32)nc2cccc(C)c2c1=O [PIK-293]
IC50 (PI3Kδ): 240 nM | IC50 (PI3Kγ): 10000 nM

RVLRSGS
Count (J774A.1 cells [1]): 63428

GRVLRSS
Count (J774A.1 cells [1]): 6774

CRVLRSGSC (disulfide 1-9 (inferred); also: FAM or biotin label) [TAM-homing peptide; tested with N-terminal FAM label (FAM-CRV) or biotin label (biotin-CRV)]
homing to atherosclerosis plaques [2]: does not home to plaques; also recorded: recognizes macrophages in tumors but not in atherosclerotic plaques | localization in tumor sections (fluorescence microscopy) (4T1 breast tumors; 100 μg FAM-labeled peptide intravenously): lack of co-localization of CRV with the blood vessel marker CD31; also recorded: entered into the extravascular compartment of the tumor; also recorded: Partial co-localization of CRV with the macrophage marker F4/80; also recorded: localizes in a CD45 leukocyte-rich tumor area; also recorded: co-localizes with macrophages having the macrophage markers F4/80 and with lymphatic vessels in tumors | organ fluorescence after injection of FAM-labeled peptide (4T1 breast tumors; 100 μg intravenously, perfusion, n=2): tumors were positive for peptide fluorescence; also recorded: Some fluorescence was seen in one lung; also recorded: kidneys were positive; also recorded: preferentially homes to tumors | in vivo tissue distribution (FAM signal of excised organs) (4T1 breast tumors; FAM-CRV intravenously, perfusion, heart, lung, liver, kidney, spleen, tumor): mainly found in the tumors and the kidneys, with trace amounts or none in the liver, spleen, lungs and heart | binding to different subtypes of CD11b+ cells (CD11b+Ly-6G+ vs. CD11b+Ly-6G-) [3]: binds equally well | share of CRV-positive cells that are CD11b+ cells [3]: ~80% | ability of the host to clear the infection [4]: markedly increased ability of the host to clear the infection | binding to J774A.1 cells versus control peptides (J774A.1 cells [5]; FAM-labeled peptide 10 μM, 1 h at 4° C., flow cytometry, controls ARA, GGSGGSKG): higher binding | effect of excess biotin-labeled CRV on binding of FAM-CRV to J774A.1 cells (J774A.1 cells [5]; biotin-CRV 500 μM (50-fold excess), FAM-CRV 10 μM): inhibited the binding | binding to Raw264.7 cells versus control peptides (Raw264.7 cells): higher binding

Cc1ccc([N+](=O)[O-])cc1S(=O)(=O)N(C)/N=C/c1cnc2ccc(Br)cn12 [PIK-75]
IC50 (DNA-PK): 2 nM | IC50 (PI3Kγ): 76 nM

SVGRSMRS
Count (J774A.1 cells [1]): 7916

GRLLRSG
Count (J774A.1 cells [1]): 9124

FC(F)c1nc2ccccc2n1-c1nc(N2CCOCC2)nc(N2CCOCC2)n1 [ZSTK474]
IC50 (class I PI3K isoforms; read-out: IC50 for PI3K isoforms stated together (PI3Kα/β/δ/γ; class I PI3K isoforms)): 37 nM

CCn1c(=O)c(-c2cc[nH]n2)cc2c(C)nc(N)nc21 [SAR245409]
inhibition of DNA-PK and mTOR [6]: also inhibits DNA-PK and mTOR. Phase 1/2.

Cn1c(=O)n(-c2ccc(C(C)(C)C#N)cc2)c2c3cc(-c4cnc5ccccc5c4)ccc3ncc21 [BEZ235, Dactolisib]
inhibition of Akt and PDK1 [6]: be a poor inhibitor to Akt and PDK1. Phase 2. | IC50 (ATR): 21 nM

O=c1c(O)c(-c2ccc(O)c(O)c2)oc2cc(O)cc(O)c12 [Quercetin]
IC50 (class I PI3K isoforms; isoform not stated, read-out: PI3K IC50): 2400 to 5400 nM

GRMLRSG
Count (J774A.1 cells [1]): 8922

RSGLRSS
Count (J774A.1 cells [1]): 9519

SVAYD
Count (J774A.1 cells [1]): 10187

COc1ccc(-c2cc3c(C)nc(N)nc3n([C@H]3CC[C@H](OCCO)CC3)c2=O)cn1 [PF-04691502]
activity against Vps34, AKT, PDK1, p7056K, MEK, ERK, p38, or JNK [6]: nM, little activity against either Vps34, AKT,

GGASIT
Count (J774A.1 cells [1]): 8677

Fc1ccc2[nH]ccc2c1-c1nc(N2CCOCC2)c2sc(CN3CCN(CC4CC4)CC3)cc2n1 [PI-3065]
selectivity ratio (PI3Kδ): > 70

GGRVLRS
Count (J774A.1 cells [1]): 62028

O=C1NC(=O)C(=Cc2ccc(-c3ccc(F)cc3)o2)S1 (stereo in doubt) [CAY10505]
IC50 (PI3Kγ): 33 nM

CGNKRTRGC (also: cyclic, kind and places not given here) [LyP-1, receptor is cell surface protein p32]
tumor growth (tumor): slows down tumor growth | atherosclerotic plaque (atherosclerotic plaque): reduces atherosclerotic plaque | homing to / recognition of macrophages in atherosclerosis plaques [7]: homes to macrophages residing in atherosclerosis plaques; also recorded: recognizes macrophages both in tumors and atherosclerotic plaques
